The test system of one series is DENV-2 16681 strain. Kind of series: DENV-2 antiviral assay (eGFP fluorescence). It counts as cell-based, Dengue virus. The settings on record: DENV-2 16681 eGFP, Vero cells, MOI 0.5, 3 days. As to the method:
The antiviral activity of all the compounds of the invention was tested against the DENV-2 16681 strain which was labeled with enhanced green fluorescent protein (eGPF). The culture medium consists of minimal essential medium supplemented with 2% of heat-inactivated fetal calf serum, 0.04% gentamycin (50 mg/mL) and 2 mM of L-glutamine. Vero cells, obtained from ECACC, were suspended in culture medium and 25 μL was added to 384-well plates (2500 cells/well), which already contain the antiviral compounds. Typically, these plates contain a 5-fold serial dilution of 9 dilution steps of the test compound at 200 times the final concentration in 100% DMSO (200 nL). […] Finally, each plate contains wells which are assigned as virus controls (containing cells and virus in the absence of compound), cell controls (containing cells in the absence of virus and compound) and medium controls (containing medium in the absence of cells, virus and compounds). To the wells assigned as medium control, 25 μL of culture medium was added instead of Vero cells. Once the cells were added to the plates, the plates were incubated for 30 minutes at room temperature to allow the cells to distribute evenly within the wells. Next, the plates were incubated in a fully humidified incubator (37° C., 5% CO2) until the next day. Then, DENV-2 strain 16681, labeled with eGFP, was added at a multiplicity of infection (MOI) of 0.5. Therefore, 15 μL of virus suspension was added to all the wells containing test compound and to the wells assigned as virus control. In parallel, 15 μL of culture medium was added to the medium and cell controls. Next, the plates were incubated for 3 days in a fully humidified incubator (37° C., 5% CO2). At the day of the read out, the eGFP fluorescence was measured using an automated fluorescence microscope at 488 nm (blue laser). Using an in-house LIMS system, inhibition dose response curves for each compound were calculated and the half maximal effective concentration (EC50) was determined. Therefore, the percent inhibition (I) for every test concentration is calculated using the following formula: I=100*(ST-SCC)/(SVC-SCC); ST, SCC and SVC are the amount of eGFP signal in the test compound, cell control and virus control wells, respectively. The EC50, represents the concentration of a compound at which the virus replication is inhibited with 50%, as measured by a 50% reduction of the eGFP fluorescent intensity compared to the virus control. The EC50 is calculated using linear interpolation (Table 1).

In the next series the test system is DENV-4 strain H241. The series can be described thus: Tetravalent RT-qPCR assay, serotype 4. It counts as cell-based. The settings on record: Dengue virus, DENV4, 72 h; RT-qPCR serotype 4 H241, Protocol A, Vero cells, day 3. As to the method: (§1) The antiviral activity of the compounds of the invention was tested against DENV-1 strain TC974#666 (NCPV), DENV-2 strain 16681, DENV-3 strain H87 (NCPV) and DENV-4 strain H241 (NCPV) in a RT-qPCR assay. Therefore, Vero cells were infected with either DENV-1, or -2, or -3, or -4 in the presence or absence of test compounds. At day 3 post-infection, the cells were lysed and cell lysates were used to prepare cDNA of both a viral target (the 3′UTR of DENV; Table 2) and a cellular reference gene (β-actin, Table 2). Subsequently, a duplex real time PCR was performed on a Lightcycler480 instrument. The generated Cp value is inversely proportional to the amount of RNA expression of these targets. Inhibition of DENV replication by a test compound results in a shift of Cp's for the 3′UTR gene. On the other hand, if a test compound is toxic to the cells, a similar effect on β-actin expression will be observed. The comparative ΔΔCp method is used to calculate EC50, which is based on the relative gene expression of the target gene (3′UTR) normalized with the cellular housekeeping gene (β-actin). In addition, CC50 values are determined based on the Cp values acquired for the housekeeping gene β-actin.
(§2) The culture medium consisted of minimal essential medium supplemented with 2% of heat-inactivated fetal calf serum, 0.04% gentamycin (50 mg/mL) and 2 mM of L-glutamine. Vero cells, obtained from ECACC, were suspended in culture medium and 75 μL/well was added in 96-well plates (10000 cells/well), which already contain the antiviral compounds. […] In addition, each plate contains wells which are assigned as virus controls (containing cells and virus in the absence of compound) and cell controls (containing cells in the absence of virus and compound). Once the cells were added in the plates, the plates were incubated in a fully humidified incubator (37° C., 5% CO2) until the next day. Dengue viruses serotype-1, -2, -3 and -4 were diluted in order to obtain a Cp of ˜22-24 in the assay. Therefore, 25 μL of virus suspension was added to all the wells containing test compound and to the wells assigned as virus control. In parallel, 25 μL of culture medium was added to the cell controls. Next, the plates were incubated for 3 days in a fully humidified incubator (37° C., 5% CO2). After 3 days, the supernatant was removed from the wells and the cells were washed twice with ice-cold PBS (˜100 μL). The cell pellets within the 96-well plates were stored at −80° C. for at least 1 day. Next, RNA was extracted using the Cells-to-CT^Tm lysis kit, according to the manufacturer's guideline (Life Technologies). The cell lysates can be stored at −80° C. or immediately used in the reverse transcription step.
(§3) In preparation of the reverse transcription step, mix A (table 3A) was prepared and 7.57 μL/well was dispensed in a 96-well plate. After addition of 5 μL of the cell lysates, a five minute denaturation step at 75° C. was performed (table 3B). Afterwards, 7.43 μL of mix B was added (table 3C) and the reverse transcription step was initiated (table 3D) to generate cDNA.
(§4) Finally, a RT-qPCR mix was prepared, mix C (table 4A), and 22.02 μL/well was dispensed in 96-well LightCycler qPCR plates to which 3 μL of cDNA was added and the qPCR was performed according to the conditions in table 4B on a LightCycler 480.
(§5) Using the LightCycler software and an in-house LIMS system, dose response curves for each compound were calculated and the half maximal effective concentration (EC50) and the half maximal cytotoxic concentration (CC50) were determined (Tables 5-8).
In general terms: Quantitative PCR measures a nucleic acid by following its amplification.

A further series relates to Vero cells. The note with it: African green monkey.
The subject of the next series is DENV-3 strain H87. The series can be described thus: Tetravalent RT-qPCR assay, serotype 3. The class given is cell-based. The note with it: Dengue virus, DENV3, 72 h; RT-qPCR serotype 3 H87, Protocol A, Vero cells, day 3. As to the method: as §1, §2, §3, §4, §5
For a further series, the system named is DENV-2 strain 16681. The series can be described thus: Tetravalent RT-qPCR assay, serotype 2. The settings on record: Dengue virus, DENV2, 72 h; RT-qPCR serotype 2 16681, Protocol A, Vero cells, day 3. It counts as cell-based. As to the method:
as §1, §2, §3, §4, §5

The test system of a further series is DENV-1 strain TC974#666. Kind of series: Tetravalent RT-qPCR assay, serotype 1. The settings on record: Dengue virus, DENV1, Vero, 72 h. The class given is cell-based. As to the method:
as §1, §2, §3, §4, §5

Another series is described as follows: in vitro. The settings on record: African green monkey.

Structures can show the parent of a compound that is named as a salt.

The term melting point denotes the temperature of the solid-liquid transition. Broadly, the EC50 is the midpoint of the concentration-response curve.

`COc1cc(NC(C(=O)N2CCc3ccc(OC(F)(F)F)cc32)c2ccc(F)cc2)cc(OCCCC(=O)O)c1` (racemic) (as salt: HCl) [Compound 2, 4-(3-((1-(4-fluorophenyl)-2-oxo-2-(6-(trifluoromethoxy)indolin-1-yl)ethyl)amino)-5-methoxyphenoxy)butanoic acid] yielded a melting point of 136 °C.

For `COc1cc(NC(C(=O)N2CCc3cc(OC)c(C(F)(F)F)cc32)c2ccc(Cl)cc2)cc(OCCCC(=O)O)c1` (racemic) (as salt: HCl) [Compound 5, 4-(3-((1-(4-chlorophenyl)-2-(5-methoxy-6-(trifluoromethyl)indolin-1-yl)-2-oxoethyl)amino)-5-methoxyphenoxy)butanoic Acid], the melting point is 130 °C.

In turn, `COc1cc(NC(C(=O)N2CCc3ccc(C(F)(F)F)cc32)c2ccc(Cl)cc2OC)cc(OCCCC(=O)O)c1` (racemic) (as salt: HCl) [Compound 6, 4-(3-((1-(4-chloro-2-methoxyphenyl)-2-oxo-2-(6-(trifluoro-methyl)indolin-1-yl)ethyl)amino)-5-methoxyphenoxy)butanoic acid] showed a melting point of 178 °C.

As to `COc1cc(NC(C(=O)N2CCc3ccc(C(F)(F)F)cc32)c2ccc(F)cc2)cc(OCCCC(=O)O)c1` (single isomer, unassigned) [Compound 1B], the EC50 in the series on DENV-2 16681 strain turned out to be 0.84 nM; with DENV-4 strain H241, 51 nM; in the series on DENV-3 strain H87, 3.4 nM; in the series on DENV-2 strain 16681, 0.48 nM; in the series with DENV-1 strain TC974#666, 0.28 nM. This compound displayed a CC50 with Vero cells of 20000 nM.

Consider `COc1cc(NC(C(=O)N2CCc3ccc(OC(F)(F)F)cc32)c2ccc(F)cc2)cc(OCCCC(=O)O)c1` (single isomer, unassigned) [Compound 2B], for which the EC50 in the series with DENV-2 16681 strain came to 0.24 nM; with DENV-4 strain H241 it was 30 nM; with DENV-3 strain H87, 4.6 nM; in the series with DENV-2 strain 16681, 0.28 nM; in the series with DENV-1 strain TC974#666, 0.3 nM. Also, the CC50 with Vero cells was 20000 nM.

Take `COc1cc(NC(C(=O)N2CCc3ccc(C(F)(F)F)cc32)c2ccc(Cl)cc2)cc(OCCCC(=O)O)c1` (single isomer, unassigned) [Compound 3B]: the EC50 stood at 0.14 nM with DENV-2 16681 strain; 14 nM in the series with DENV-4 strain H241; 1.1 nM with DENV-3 strain H87; 0.12 nM with DENV-2 strain 16681; 0.18 nM in the series with DENV-1 strain TC974#666. The CC50 with Vero cells came to 13000 nM.

As for `COc1cc(NC(C(=O)N2CCc3ccc(OC(F)(F)F)cc32)c2ccc(Cl)cc2)cc(OCCCC(=O)O)c1` (single isomer, unassigned) [Compound 4B], the EC50 came to 0.12 nM in the series with DENV-2 16681 strain; 11 nM in the series with DENV-4 strain H241; 0.66 nM in the series on DENV-3 strain H87; 0.06 nM with DENV-2 strain 16681; 0.048 nM with DENV-1 strain TC974#666. Also, in the series on Vero cells, the CC50 came to 13000 nM.

In the case of `COc1cc(NC(C(=O)N2CCc3cc(OC)c(C(F)(F)F)cc32)c2ccc(Cl)cc2)cc(OCCCC(=O)O)c1` (single isomer, unassigned) [Compound 5B], the EC50 was determined as 0.18 nM in the series with DENV-2 16681 strain; 24 nM in the series on DENV-4 strain H241; 4.6 nM with DENV-3 strain H87; 0.17 nM in the series with DENV-2 strain 16681; 0.74 nM in the series with DENV-1 strain TC974#666. For the same compound, the CC50 in the series with Vero cells amounted to 13000 nM.

As to `COc1cc(NC(C(=O)N2CCc3cc(OC)c(C(F)(F)F)cc32)c2ccc(Cl)cc2OC)cc(OCCCC(=O)O)c1` (single isomer, unassigned) [Compound 7B], the EC50 amounted to 0.17 nM with DENV-2 16681 strain; 25 nM with DENV-4 strain H241; 5.8 nM with DENV-3 strain H87; 0.28 nM in the series on DENV-2 strain 16681; 0.61 nM with DENV-1 strain TC974#666. The same compound had a CC50 in the series on Vero cells of 13000 nM.

As to `COc1cc(NC(C(=O)N2CCc3ccc(OC(F)(F)F)cc32)c2ccc(Cl)cc2OC)cc(OCCCC(=O)O)c1` (single isomer, unassigned) [Compound 8B], the EC50 turned out to be 0.066 nM with DENV-2 16681 strain; 12 nM with DENV-4 strain H241; 1 nM in the series on DENV-3 strain H87; 0.062 nM in the series with DENV-2 strain 16681; 0.15 nM in the series with DENV-1 strain TC974#666. Moreover, the CC50 with Vero cells came out at 14000 nM.

For the compound `COc1cc(NC(C(=O)N2CCc3ccc(C(F)(F)F)cc32)c2ccc(Cl)cc2F)cc(OCCCC(=O)O)c1` (single isomer, unassigned) [Compound 9B], the EC50 in the series on DENV-2 16681 strain came to 0.4 nM; in the series with DENV-4 strain H241, 31 nM; with DENV-3 strain H87, 4.1 nM; in the series on DENV-2 strain 16681, 0.3 nM; with DENV-1 strain TC974#666 it was 0.22 nM. This compound had a CC50 in the series with Vero cells of 13000 nM.

Turning to `COc1cc(NC(C(=O)N2CCc3ccc(OC(F)(F)F)cc32)c2ccc(Cl)cc2F)cc(OCCCC(=O)O)c1` (single isomer, unassigned) [Compound 10A], the EC50 amounted to 0.19 nM with DENV-2 16681 strain; 10 nM with DENV-4 strain H241; 2.1 nM in the series with DENV-3 strain H87; 0.2 nM in the series with DENV-2 strain 16681; 0.16 nM in the series with DENV-1 strain TC974#666. Besides, the CC50 in “in vitro” came to 13000 nM.

With `COc1cc(NC(C(=O)N2CCc3cc(OC)c(C(F)(F)F)cc32)c2ccc(Cl)cc2F)cc(OCCCC(=O)O)c1` (single isomer, unassigned) [Compound 11B], the EC50 in the series with DENV-2 16681 strain was 0.15 nM; with DENV-4 strain H241, 22 nM; with DENV-3 strain H87, 5.4 nM; in the series on DENV-2 strain 16681 it was 0.17 nM; with DENV-1 strain TC974#666 it was 0.67 nM. The compound further had a CC50 with Vero cells of 12000 nM.

For `COc1cc(NC(C(=O)N2CCc3cc(OC)c(OC(F)(F)F)cc32)c2ccc(Cl)cc2)cc(OCCCC(=O)O)c1` (single isomer, unassigned) [Compound 12B], the concentration for a half-maximal effect (EC50) with DENV-2 16681 strain amounted to 0.35 nM; with DENV-4 strain H241 it was 28 nM; with DENV-3 strain H87, 4.1 nM; in the series on DENV-2 strain 16681 it was 0.22 nM; in the series on DENV-1 strain TC974#666 it was 0.68 nM. In addition, the CC50 in the series with Vero cells was 12000 nM.

Values taken from patent publication US10689340B2, “Substituted indoline derivatives as dengue viral replication inhibitors” (priority 2016, dated 2020).
